Data set [1] relates to MCF-7/VP cells. The data set is described as follows: SRB cytotoxicity assay, etoposide-resistant MCF-7/VP cells (MRP1 up-regulated). As to conditions: for IC50: 48 hours, SRB; for RR (relative resistance) MCF7/VP vs MCF7: mean +/- SD. It is filed as cell-based. An excerpt: (§1) The etoposide-resistant breast cancer cell line MCF-7/VP was used (Schneider et al, Cancer Res, 54, 152). […] ABCC1; Schneider et al, Cancer Res, 54, 152; Perez-Soler et al, Int J Cancer, 71,35). The parental cell line, MCF-7, was used as a control.

The subject of data set [2] is MCF-7 cells. The data set is described as follows: SRB cytotoxicity assay, parental MCF-7 cells. To be noted: read-out: IC50 MCF7 ("non-resistant"). The format is cell-based.
Excerpt: as §1

The subject of data set [3] is A129 cp80 cells. The data set is described as follows: SRB cytotoxicity assay, cisplatin-resistant A129 cp80 cells. It is filed as cell-based, human. As to conditions: for IC50: 48 hours, SRB.
Protocol: (§5) The P-glycoprotein expressing NCI-Adr resistant subline (Vickers et al., 1989. Mol Endocrinology 3 (1):157-164) was used. […] Briefly, cells were plated in 96 well dishes 24 hours prior to compound addition. Where noted, they were exposed to verapamil for 4 hours prior to compound addition and then throughout the treatment period (48 hours). The assay was terminated with the addition of cold TCA to a final concentration of 10% and the plates were incubated for one hour at 4° C. The plates were then washed 5 times with water and 100 μl of a Sulforhodamine B solution (4%) was added to each well. The plate was then incubated for 10 minutes at room temperature before removal of unbound dye by washing with 1% acetic acid. The bound dye was solubilized with 10 mM Trizma base and the absorbance read at OD570.
(§6) The parental non-mutated cell line A 129 was used as control.
(§7) Cytotoxicty was measured using the SRB assay according to Shekan et al. as described above in Example 1A.
Data set [4] deals with A129 cells. The data set is described as follows: SRB cytotoxicity assay, parental A129 cells. It is filed as cell-based, human. As to conditions: 48 hours, read-out: IC50 A129 ("non-resistant"). A general note: Sulforhodamine B stains cellular protein and so reports cell mass.
Protocol: as §5, §6, §7
Data set [5] concerns HT29 cells. The data set is described as follows: SRB cytotoxicity assay, parental HT29 cells. It is filed as cell-based. As to conditions: read-out: IC50 HT-29 ("non-resistant").
Protocol: (§8) Briefly, cells were plated in 96 well dishes 24 hours prior to compound addition. Where noted, they were exposed to verapamil for 4 hours prior to compound addition and then throughout the treatment period (48 hours). The assay was terminated with the addition of cold TCA to a final concentration of 10% and the plates were incubated for one hour at 4° C. The plates were then washed 5 times with water and 100 μl of a Sulforhodamine B solution (4%) was added to each well. The plate was then incubated for 10 minutes at room temperature before removal of unbound dye by washing with 1% acetic acid. The bound dye was solubilized with 10 mM Trizma base and the absorbance read at OD570.
(§9) The mitoxantrone-resistant colon carcinoma cell line HT29/MIT was used (Perego et al, Cancer Res, 61, 6034). […] The parental cell line, HT29, was used as a control.
Data set [6] has as its system 1A9 cells. The data set is described as follows: SRB cytotoxicity assay, parental paclitaxel-sensitive 1A9 cells. The format is cell-based, human. To be noted: mean +/- SD, number of experiments in brackets, read-out: IC50 1A9 ("non-resistant"). From the text:
(§2) The tubulin mutated, paclitaxel-resistant human ovarian carcinoma cell line 1A9-PTX10 and its parental paclitaxel-sensitive cell line 1A9 were derived from the A2780 human ovarian carcinoma cell line (J Biol Chem (1997) 272, 17118-17124).

Data set [7] deals with 1A9-PTX10 cells. The data set is described as follows: SRB cytotoxicity assay, tubulin mutated paclitaxel-resistant 1A9-PTX10 cells. As to conditions: for IC50: 48 hours exposure, SRB, mean +/- SD, number of experiments in brackets; for RR (relative resistance) 1A9-PTX10 vs 1A9: ratio of the means of the resistant cells compared to the sensitive cells. The format is cell-based, human.
Excerpt: as §2

In data set [8] the test system is CCRF/CEM cells. The data set is described as follows: Calcein AM viability assay (flow cytometry), parental CEM cells. The format is cell-based, human. As to conditions: 48 hours, read-out: IC50 CEM ("non-resistant"). The method, then:
(§3) The Camptothecin resistant CEM/C2 cells were derived from the T lymphoblastoid leukemia cell line CCRF/CEM by selection in the presence of Camptohecin in vitro (Kapoor et al., 1995. Oncology Research 7; 83-95, ATCC
(§4) The cells were plated in T-25 flasks in the presence or absence of compound and incubated for 48 hours before termination of the assay. Cells were washed twice with PBS and incubated in 200 μl of a solution of Calcein AM (0.3 nM)/PBS for 90 minutes at 37° C. The cells were washed once with PBS before determining fluorescent units on a FACS can flow cytometer.

Data set [9] has as its system HT29/MIT cells. The data set is described as follows: SRB cytotoxicity assay, mitoxantrone-resistant HT29/MIT cells (BCRP up-regulated). As to conditions: for RR (relative resistance) HT-29/MIT vs HT-29: mean +/- SD; for IC50: read-out: IC50 HT-29/MIT ("resistant").
Protocol: as §8, §9
Data set [10] concerns CEM/C2 cells. The data set is described as follows: Calcein AM viability assay (flow cytometry), camptothecin resistant CEM/C2 cells. The format is cell-based, human. To be noted: for IC50: 48 hours, Calcein AM; for RR (relative resistance) CEM/C2 vs CEM: atypical multi-drug resistance and mutant topoisomerase I. The protocol: as §3, §4
Data set [11] has as its system NCI-Adr resistant subline. The data set is described as follows: SRB cytotoxicity assay, P-glycoprotein expressing NCI-Adr resistant subline, with and without verapamil. It is filed as cell-based. As to conditions: for IC50: 48 hours, SRB; for RR (relative resistance) NCI-Adr resistant −verapamil vs +verapamil: ratio of the means of the resistant cells compared to the sensitive cells.
Protocol: as §8

The subject of data set [12] is cells in S-phase. To be noted: in vitro; cited from earlier work.
The target of data set [13] is P-gp (Homo sapiens, UniProt P08183). As to conditions: more potent than cyclosporine; cited from earlier work.
[14] abbreviates: read-out: IC50 MCF7/VP ("resistant").
Setting [15] is: no verapamil, read-out: IC50 NCI-Adr resistant −verapamil ("resistant").
[16] abbreviates: verapamil 12.5 μg/ml, read-out: IC50 NCI-Adr resistant +verapamil ("non-resistant").
Setting [17] is: Homo sapiens, 1A9, 48 hours exposure.
Setting [18] is: Homo sapiens, NCI/ADR-RES, no verapamil, read-out: IC50 NCI-Adr resistant −verapamil ("resistant").
Where [19] appears, read: Homo sapiens, NCI/ADR-RES, verapamil 12.5 μg/ml, read-out: IC50 NCI-Adr resistant +verapamil ("non-resistant").

Read-outs that look alike come from different tables or passages of the source.

Sequence of P-gp (P08183 whole entry): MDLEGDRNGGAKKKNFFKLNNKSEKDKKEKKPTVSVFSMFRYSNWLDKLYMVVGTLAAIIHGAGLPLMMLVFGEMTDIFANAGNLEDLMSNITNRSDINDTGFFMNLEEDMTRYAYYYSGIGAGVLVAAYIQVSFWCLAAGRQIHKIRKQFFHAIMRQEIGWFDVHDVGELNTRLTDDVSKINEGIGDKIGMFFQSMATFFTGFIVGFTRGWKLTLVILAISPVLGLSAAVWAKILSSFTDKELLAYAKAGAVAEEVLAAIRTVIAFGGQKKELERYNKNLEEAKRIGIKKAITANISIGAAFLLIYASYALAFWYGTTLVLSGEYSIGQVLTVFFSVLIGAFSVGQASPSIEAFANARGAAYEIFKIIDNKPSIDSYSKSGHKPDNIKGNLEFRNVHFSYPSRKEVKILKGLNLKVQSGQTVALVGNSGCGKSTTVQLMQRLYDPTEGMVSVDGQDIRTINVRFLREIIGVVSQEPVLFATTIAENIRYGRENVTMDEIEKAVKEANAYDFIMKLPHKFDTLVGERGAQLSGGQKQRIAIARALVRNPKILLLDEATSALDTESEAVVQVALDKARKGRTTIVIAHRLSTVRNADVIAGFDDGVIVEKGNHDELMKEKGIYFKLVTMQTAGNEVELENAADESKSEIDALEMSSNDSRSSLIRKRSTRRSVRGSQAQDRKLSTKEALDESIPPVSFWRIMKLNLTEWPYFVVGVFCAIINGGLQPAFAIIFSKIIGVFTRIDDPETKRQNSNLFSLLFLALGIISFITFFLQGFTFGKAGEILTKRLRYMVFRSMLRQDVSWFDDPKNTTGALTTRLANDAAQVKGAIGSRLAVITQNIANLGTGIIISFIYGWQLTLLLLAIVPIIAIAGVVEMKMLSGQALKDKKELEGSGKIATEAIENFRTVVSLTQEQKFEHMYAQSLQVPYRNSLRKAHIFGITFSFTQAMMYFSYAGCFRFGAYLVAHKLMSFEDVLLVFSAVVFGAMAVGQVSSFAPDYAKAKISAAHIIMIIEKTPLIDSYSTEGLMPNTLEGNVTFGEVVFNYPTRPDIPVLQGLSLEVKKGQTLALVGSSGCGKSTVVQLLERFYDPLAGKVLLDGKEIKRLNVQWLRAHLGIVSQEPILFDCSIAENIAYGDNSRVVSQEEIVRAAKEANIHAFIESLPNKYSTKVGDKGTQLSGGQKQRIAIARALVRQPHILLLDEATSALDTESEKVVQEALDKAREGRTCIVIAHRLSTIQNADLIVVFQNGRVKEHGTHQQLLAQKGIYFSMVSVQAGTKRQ

`COc1cc([C@@H]2c3cc4c(cc3[C@@H](O[C@@H]3O[C@@H]5CO[C@@H](C)O[C@H]5[C@H](O)[C@H]3O)[C@H]3COC(=O)[C@H]23)OCO4)cc(OC)c1O` [Etoposide, etoposide]: the IC50 in data set [1] (Homo sapiens, MCF7-VP) is above 100000 nM; in data set [2] (Homo sapiens, MCF7, 48 hours) it was 7200 nM. Besides, in data set [1], the “RR (relative resistance) MCF7/VP vs MCF7” value is reported as above 20. In addition, the “relative resistance in individual experiments, MCF-7/VP vs MCF-7” value in data set [1] (range over individual experiments) was above 20 fold.

For the compound `N.NC1CCCCC1.[Cl-].[Cl-].[Pt+2]` [JM118], the IC50 was 430 nM in data set [3]; 170 nM in data set [4]; 1300 nM in data set [1] (setting [14]); 4500 nM in data set [5] (48 hours); 500 nM in data set [6] (48 hours exposure); 1500 nM in [7]. Also, the IC50 is 1200 nM in [2] (48 hours); 430 nM in data set [8]; 6000 nM in [9] (48 hours, SRB); 500 nM in [10]; 2100 nM in data set [11] (setting [15]); 2300 nM in [11] (setting [16]). For the same compound, the “RR (relative resistance) A129 cp80 vs A129” value in [3] (cisplatin resistance mechanism) is on record as 2.6. Also, the “RR (relative resistance) MCF7/VP vs MCF7” value in data set [1] is recorded as 1.1 +/− 0.1. Further, in data set [7], the “RR (relative resistance) 1A9-PTX10 vs 1A9” value was 3.1. For the same compound, the “RR (relative resistance) HT-29/MIT vs HT-29” value in data set [9] was 1.3 +/− 0.1. Moreover, in data set [10], the “RR (relative resistance) CEM/C2 vs CEM” value is 1.18. Further, in data set [11], the “RR (relative resistance) NCI-Adr resistant −verapamil vs +verapamil” value is listed as 1.1.

As for `CC[C@@]1(O)C(=O)OCc2c1cc1n(c2=O)Cc2cc3ccccc3nc2-1` [Camptothecin, camptothecin], in [12], the “sensitivity to camptothecin of cells in S-phase relative to cells in G1 or G2” value is listed as 100-1000 times. The IC50 in data set [8] (Homo sapiens, CCRF-CEM) is 5 nM; in data set [10] (Homo sapiens, CEM/C2), 6750 nM. For the same compound, the “RR (relative resistance) CEM/C2 vs CEM” value in data set [10] is reported as 1500.

Consider `CC(=O)O[C@@]12CO[C@@H]1C[C@H](O)[C@@]1(C)C(=O)[C@H](O)C3=C(C)[C@@H](OC(=O)[C@H](O)[C@@H](NC(=O)OC(C)(C)C)c4ccccc4)C[C@@](O)([C@@H](OC(=O)c4ccccc4)[C@H]21)C3(C)C` [Taxotere, N-debenzoyl-N-tert-butoxycarbonyl-10-deacetyl paclitaxel], for which the IC50 in data set [6] (setting [17]) is 2 nM; in data set [7] (Homo sapiens, 1A9/ptx-10) it was 212 nM; in [11] (setting [18]) it was 620 nM; in data set [11] (setting [19]) it was 19 nM.

Consider `COc1cccc2c1C(=O)c1c(O)c3c(c(O)c1C2=O)C[C@@](O)(C(=O)CO)C[C@@H]3O[C@H]1C[C@H](N)[C@H](O)[C@H](C)O1` [Adriamycin, adriamycin], for which the IC50 worked out at 650 nM in [11] (setting [18]) and 75000 nM in data set [11] (setting [19]). Moreover, the “relative resistance, NCI-Adr resistant subline without vs with verapamil” value in [11] (individual experiments) came out at 115 fold. For the same compound, the “RR (relative resistance) NCI-Adr resistant −verapamil vs +verapamil” value in data set [11] worked out at 115.

With `N.N.[Cl][Pt][Cl]` [Cisplatin, cisplatin], the IC50 in data set [3] is 11600 nM; in data set [4] it was 130 nM; in data set [1] (setting [14]), 31200 nM; in [6] (48 hours exposure), 8400 nM; in [7] it was 13900 nM; in [2] (48 hours), 28700 nM. Further, the IC50 is 2600 nM in data set [8], 2200 nM in data set [10], 13200 nM in data set [11] (setting [15]) and 13000 nM in data set [11] (setting [16]).

Regarding `CC(=O)O[C@H]1C(=O)[C@@]2(C)[C@H]([C@H](OC(=O)c3ccccc3)[C@]3(O)C[C@H](OC(=O)[C@H](O)[C@@H](NC(=O)c4ccccc4)c4ccccc4)C(C)=C1C3(C)C)[C@]1(OC(C)=O)CO[C@@H]1C[C@@H]2O` [Paclitaxel, paclitaxel], the IC50 stood at 5 nM in data set [6] (setting [17]); 213 nM in data set [7] (Homo sapiens, 1A9/ptx-10); 1420 nM in data set [11] (setting [18]); 31 nM in data set [11] (setting [19]). Moreover, the “RR (relative resistance) 1A9-PTX10 vs 1A9” value in data set [7] turned out to be 42.6. The “RR (relative resistance) NCI-Adr resistant −verapamil vs +verapamil” value in data set [11] was found to be 46.

For `O=C1c2c(O)ccc(O)c2C(=O)c2c(NCCNCCO)ccc(NCCNCCO)c21` [Mitoxantrone, mitoxantrone], the IC50 in data set [5] (Homo sapiens, HT-29, 48 hours) was determined as 1300 nM; in data set [9] (Homo sapiens, HT-29, 48 h), 198000 nM. Further, the “RR (relative resistance) HT-29/MIT vs HT-29” value in data set [9] is given as 175 +/− 67.

Turning to `C/C=C/C[C@@H](C)C(=O)[C@H]1C(=O)N[C@@H](C(C)C)C(=O)N(C)CC(=O)N(C)[C@@H](CC(C)C)C(=O)N[C@@H](C(C)C)C(=O)N(C)[C@@H](CC(C)C)C(=O)N[C@@H](C)C(=O)N[C@H](C)C(=O)N(C)[C@@H](CC(C)C)C(=O)N(C)[C@@H](CC(C)C)C(=O)N(C)[C@@H](C(C)C)C(=O)N1C` [PSC-833], the “P-gp inhibitor potency relative to cyclosporine” value in [13] is recorded as 10 times.
